Key:
[1] = system: mouse peritoneum macrophages; assay: LPS-stimulated mouse peritoneal macrophages, cytokine analysis (Example 5); assay type: cell-based, mice
Description: This example provides an in vivo study to determine the effect of DA on mouse peritoneum macrophages. Peritoneal exudates were obtained from Balb/c female mice by lavage 4 days after an intraperitoneal injection of 4 ml sterile 4% thioglycollate broth. After washing with RPMI 1640 medium, the cell suspensions were centrifuged at 800 g at 4° C. for 5 min. The red blood cells were eliminated by ACK buffer and the cells were washed and resuspended in RPMI 1640 supplemented with 10% inactivated FBS, 10 mM HEPES, 2 mM glutamine, and 100 U/ml penicillin-[…] streptomycin. The peritoneal macrophages were plated in 24 well tissue culture plate (2×10^5 cells/mL/well) at 37° C. in a 5% CO2 humidified atmosphere. Macrophages were precultured in serum-free RPMI 1640 medium for 24 h to reduce mitogenic effects. Macrophages were pretreated with various concentrations of DA for 1 h prior to LPS treatment and stimulated with LPS (100 ng/mL) for 24 h. Treatment groups were: [table]

[2] = system: diet-induced (DIO) mice; assay: Body weight study in diet-induced (DIO) mice (Example 9); assay type: in vivo, C57BL/6NTac mice
Description: This example provides results of a study of DA plus another compound (CQL) on body weight in diet-induced (DIO) mice. Adult C57BL/6NTac mice were fed with a high fat diet (60%). […] The study period was for 56 days+2-3 days testing period afterward. Body weight change measure 3× per week, food and water consumption on days 0, 12, 28, 42 and 56. Metabolic biomarkers were measured on days 28 and 56. Cytokine analysis on Days 28 and 56. Serum levels of GLP-1, GLP-2, and CCK at 1 h after dosing on Days 1 and 56, and at 2 h after dosing on Day 7 (dosing (>6 h fasting prior to dosing until after blood collection); and serum level of PPY on Day 56.

[3] = system: leptin-deficient (ob/ob) mice; assay: Body weight and biomarker study in leptin-deficient (ob/ob) mice, 56 days (Example 10); assay type: in vivo; conditions: 50 mg/kg gavage BID
Description: Therefore, ob/ob mice are a predictive in vivo model for these indications. This example provides results of a study of DA plus another compound (CQL) on body weight in leptin-deficient (ob/ob) mice. Vehicle group (N=14) were treated with distilled water by gavage BID, and DA (N=14) at a dose of 50 mg/kg by gavage BID. The study period was for 56 days+2-3 days testing period afterward. Body weight change measured 3× per week, food intake was measure twice per week, metabolic biomarkers (blood glucose, blood insulin, blood HbA1c, HDL, LDL, triglyceride and bile acid) were measured at beginning and end of study. Cytokine analysis was measured at end on Day 56.

[4] = system: biomarkers (chemokines, CSFs, interleukins, IFNs); assay: Biomarkers compared across many studies (Table 2); assay type: in vivo; conditions: PO 92.4 mg/kg DA BID
Description: The many examples provided herein show the effect of the denatonium salts on various in vivo and in vitro models of various disease indications. In addition, blood samples were taken from the tested (and control) animals and various biomarkers were measured and compared. FIGS. 70A-C show graphs comparing biomarkers across many studies. […] It should be noted that clusters of multiple biomarkers predict effectiveness for each disease indication and that grouping is shown in FIG. 71.

[5] = DA 92.4 mg/kg gavage BID, vs vehicle
[6] = DA 92.4 mg/kg gavage BID, vs vehicle, no significant difference
[7] = gavage BID (DA 92.4 mg/kg, CQL 50 mg/kg)
[8] = day 56, no significant difference

CC(=O)[O-].CC[N+](CC)(CC(=O)Nc1c(C)cccc1C)Cc1ccccc1 [DA, denatonium acetate]
GM-CSF: Significance @24 hour LPS incubation ([1]; DA 1 μM): No sig | IFNγ: Significance @24 hour LPS incubation ([1]; DA 1 μM): No sig | IL-1α: Significance @24 hour LPS incubation ([1]; DA 1 μM): No sig | IL-1β: Significance @24 hour LPS incubation ([1]; DA 1 μM): No sig | IL-2: Significance @24 hour LPS incubation ([1]; DA 1 μM): No sig | IL-4: Significance @24 hour LPS incubation ([1]; DA 1 μM): No sig | IL-6: Significance @24 hour LPS incubation ([1]; DA 1 μM): No sig | IL-7: Significance @24 hour LPS incubation ([1]; DA 1 μM): No sig | IL-10: Significance @24 hour LPS incubation ([1]; DA 1 μM): No sig | IL-12 (p70): Significance @24 hour LPS incubation ([1]; DA 1 μM): No sig | IL-13: Significance @24 hour LPS incubation ([1]; DA 1 μM): No sig | IL-17A: Significance @24 hour LPS incubation ([1]; DA 1 μM): No sig | KC/CXCL1: Significance @24 hour LPS incubation ([1]; DA 1 μM): No sig | LIX: Significance @24 hour LPS incubation ([1]; DA 1 μM): No sig | MCP-1: Significance @24 hour LPS incubation ([1]; DA 1 μM): No sig | MIP-2: Significance @24 hour LPS incubation ([1]; DA 1 μM): No sig | TNF-α: Significance @24 hour LPS incubation ([1]; DA 1 μM): No sig | GM-CSF: Significance @24 hour LPS incubation ([1]; DA 10 μM): no sig | IFNγ: Significance @24 hour LPS incubation ([1]; DA 10 μM): no sig | IL-1α: Significance @24 hour LPS incubation ([1]; DA 10 μM): no sig | IL-1β: Significance @24 hour LPS incubation ([1]; DA 10 μM): no sig | IL-2: Significance @24 hour LPS incubation ([1]; DA 10 μM): no sig | IL-4: Significance @24 hour LPS incubation ([1]; DA 10 μM): no sig | IL-6: Significance @24 hour LPS incubation ([1]; DA 10 μM): no sig | IL-7: Significance @24 hour LPS incubation ([1]; DA 10 μM): no sig | IL-10: Significance @24 hour LPS incubation ([1]; DA 10 μM): no sig | IL-12 (p70): Significance @24 hour LPS incubation ([1]; DA 10 μM): no sig | IL-13: Significance @24 hour LPS incubation ([1]; DA 10 μM): no sig | IL-17A: Significance @24 hour LPS incubation ([1]; DA 10 μM): no sig | KC/CXCL1: Significance @24 hour LPS incubation ([1]; DA 10 μM): no sig | LIX: Significance @24 hour LPS incubation ([1]; DA 10 μM): no sig | MCP-1: Significance @24 hour LPS incubation ([1]; DA 10 μM): no sig | MIP-2: Significance @24 hour LPS incubation ([1]; DA 10 μM): no sig | TNF-α: Significance @24 hour LPS incubation ([1]; DA 10 μM): no sig | GM-CSF: Significance @24 hour LPS incubation ([1]; DA 100 μM): no sig | IFNγ: Significance @24 hour LPS incubation ([1]; DA 100 μM): no sig | IL-1α: Significance @24 hour LPS incubation ([1]; DA 100 μM): no sig | IL-1β: Significance @24 hour LPS incubation ([1]; DA 100 μM): no sig | IL-2: Significance @24 hour LPS incubation ([1]; DA 100 μM): no sig | IL-4: Significance @24 hour LPS incubation ([1]; DA 100 μM): no sig | IL-6: Significance @24 hour LPS incubation ([1]; DA 100 μM): no sig | IL-7: Significance @24 hour LPS incubation ([1]; DA 100 μM): no sig | IL-10: Significance @24 hour LPS incubation ([1]; DA 100 μM): no sig | IL-12 (p70): Significance @24 hour LPS incubation ([1]; DA 100 μM): no sig | IL-13: Significance @24 hour LPS incubation ([1]; DA 100 μM): no sig | IL-17A: Significance @24 hour LPS incubation ([1]; DA 100 μM): no sig | KC/CXCL1: Significance @24 hour LPS incubation ([1]; DA 100 μM): no sig | LIX: Significance @24 hour LPS incubation ([1]; DA 100 μM): no sig | MCP-1: Significance @24 hour LPS incubation ([1]; DA 100 μM): no sig | MIP-2: Significance @24 hour LPS incubation ([1]; DA 100 μM): no sig | TNF-α: Significance @24 hour LPS incubation ([1]; DA 100 μM): no sig | Serum glucose levels ([2]; DA 92.4 mg/kg gavage BID): did not show a significant effect | Serum GLP-1 levels at Day 56 ([2]; DA 92.4 mg/kg gavage BID, 1 h after dosing, vs vehicle): significantly increased | Serum GLP-1 levels at Day 7 ([2]; DA 92.4 mg/kg gavage BID, 2 h after dosing, vs vehicle): significantly increased | Body weight gain at day 57 ([2]; DA 92.4 mg/kg gavage BID, compared to vehicle and CQL): significantly reduced | Serum CCK levels at Day 56 [2, 5]: significantly increased | Serum GLP-2 levels at Day 56 [2, 5]: significantly increased | Serum PYY levels at Day 56 [2, 5]: significantly increased | Serum insulin level at Day 28 [2, 5]: significantly reduced | Serum LDL levels at day 28 [2, 6]: noticeable decrease | Serum LDL levels at day 56 [2, 6]: noticeable decrease | Serum HbA1c level at Day 28 [2, 7]: significantly reduced | Serum HbA1c level at Day 56 [2, 7]: considerably increased | Daily water intake at Day 28 ([2]; gavage BID (DA 92.4 mg/kg, CQL 50 mg/kg), vs vehicle): significantly increased | Body weight ([3]; 56 days): no significant effect | Daily food consumption ([3]; 56 days): no significant effect | Serum HBA1c levels ([3]; 56 days): no significant effect | Serum HDL levels ([3]; 56 days): no significant effects | Serum glucose levels ([3]; 56 days): significantly decreased | Serum insulin levels ([3]; 56 days): no significant effect | Serum LDL levels ([3]; 56 days, vs vehicle): significantly lowered | Serum bile acids levels ([3]; 56 days, vs vehicle): significantly increased | Serum triglyceride levels ([3]; 56 days, vs vehicle): significantly lowered | IL-1β level decreased by, compared to vehicle group [3, 8]: 19.1% | IL-6 level decreased by, compared to vehicle group [3, 8]: 61.4% | MCP-1 level decreased by, compared to vehicle group [3, 8]: 20.9% | RANTES level decreased by, compared to vehicle group [3, 8]: 1.7% | Eotaxin: Decreased Percentage Compared to Vehicle [4]: −18.6% | G-CSF: Decreased Percentage Compared to Vehicle [4]: −37.5% | GM-CSF: Decreased Percentage Compared to Vehicle [4]: −2.3% | IFN-γ: Decreased Percentage Compared to Vehicle [4]: −37.3% | IL-1α: Decreased Percentage Compared to Vehicle [4]: −18.2% | IL-1β: Decreased Percentage Compared to Vehicle [4]: −12.0% | IL-3: Decreased Percentage Compared to Vehicle [4]: −74.5% | IL-5: Decreased Percentage Compared to Vehicle [4]: −29.1% | IL-6: Decreased Percentage Compared to Vehicle [4]: −34.2% | IL-10: Decreased Percentage Compared to Vehicle [4]: −92.5% | IL-12 (p70): Decreased Percentage Compared to Vehicle [4]: −28.0% | IL-17: Decreased Percentage Compared to Vehicle [4]: −21.2% | KC: Decreased Percentage Compared to Vehicle [4]: −21.6% | LIX: Decreased Percentage Compared to Vehicle [4]: −7.3% | MCP-1: Decreased Percentage Compared to Vehicle [4]: −24.2% | MIG: Decreased Percentage Compared to Vehicle [4]: −13.2% | MIP-1α: Decreased Percentage Compared to Vehicle [4]: −3.4% | MIP-1β: Decreased Percentage Compared to Vehicle [4]: −10.2% | MIP-2: Decreased Percentage Compared to Vehicle [4]: −76.3% | RANTES: Decreased Percentage Compared to Vehicle [4]: −20.6%

— US20230096528A1, “Pharmaceutical Composition for Treatment or Prevention of Multiple Inflammatory disorders” (priority 2019, published 2023)
